# Reference: the NIST ThermoML archive (doi:10.1021/je020205i)
# Experiment: xn = mol fraction of the nth substance listed
# Details: Fluid (supercritical or subcritical phases), Taylor dispersion method, x1 = 0
smiles,measurement,setting,value
"CCCCCC=CCC=CCC=CCC=CCCCC(=O)O [5,8,11,14-eicosatetraenoic acid] + O=C=O",binary diffusion coefficient,"308.15 K, 9500 kPa",7.5e-09 m2/s
same,binary diffusion coefficient,"308.15 K, 10000 kPa",7.17e-09 m2/s
same,binary diffusion coefficient,"308.15 K, 10520 kPa",7.03e-09 m2/s
same,binary diffusion coefficient,"308.15 K, 10870 kPa",6.75e-09 m2/s
same,binary diffusion coefficient,"308.15 K, 11000 kPa",6.58e-09 m2/s
same,binary diffusion coefficient,"308.15 K, 11500 kPa",6.57e-09 m2/s
same,binary diffusion coefficient,"308.15 K, 12010 kPa",6.7e-09 m2/s
same,binary diffusion coefficient,"308.15 K, 12020 kPa",6.48e-09 m2/s
same,binary diffusion coefficient,"308.15 K, 12490 kPa",6.27e-09 m2/s
same,binary diffusion coefficient,"308.15 K, 12990 kPa",6.18e-09 m2/s
same,binary diffusion coefficient,"308.15 K, 14000 kPa",6.17e-09 m2/s
same,binary diffusion coefficient,"308.15 K, 15990 kPa",5.9e-09 m2/s
same,binary diffusion coefficient,"308.15 K, 17990 kPa",5.63e-09 m2/s
same,binary diffusion coefficient,"308.15 K, 20010 kPa",5.48e-09 m2/s
same,binary diffusion coefficient,"308.15 K, 22000 kPa",5.38e-09 m2/s
same,binary diffusion coefficient,"308.15 K, 24000 kPa",5.25e-09 m2/s
same,binary diffusion coefficient,"308.15 K, 26000 kPa",5.11e-09 m2/s
same,binary diffusion coefficient,"308.15 K, 28010 kPa",5.02e-09 m2/s
same,binary diffusion coefficient,"308.15 K, 30240 kPa",4.99e-09 m2/s
same,binary diffusion coefficient,"308.15 K, 30490 kPa",4.85e-09 m2/s
same,binary diffusion coefficient,"313.21 K, 9500 kPa",9.04e-09 m2/s
same,binary diffusion coefficient,"313.21 K, 10000 kPa",8.41e-09 m2/s
same,binary diffusion coefficient,"313.21 K, 11010 kPa",7.76e-09 m2/s
same,binary diffusion coefficient,"313.21 K, 12010 kPa",7.1e-09 m2/s
same,binary diffusion coefficient,"313.21 K, 14000 kPa",6.66e-09 m2/s
same,binary diffusion coefficient,"313.21 K, 16000 kPa",6.29e-09 m2/s
same,binary diffusion coefficient,"313.21 K, 18000 kPa",6.06e-09 m2/s
same,binary diffusion coefficient,"313.21 K, 20000 kPa",5.78e-09 m2/s
same,binary diffusion coefficient,"313.21 K, 22010 kPa",5.64e-09 m2/s
same,binary diffusion coefficient,"313.21 K, 24010 kPa",5.53e-09 m2/s
same,binary diffusion coefficient,"313.21 K, 26010 kPa",5.36e-09 m2/s
same,binary diffusion coefficient,"313.21 K, 28020 kPa",5.24e-09 m2/s
same,binary diffusion coefficient,"313.21 K, 30040 kPa",5.1e-09 m2/s
same,binary diffusion coefficient,"313.21 K, 30130 kPa",5.1e-09 m2/s
same,binary diffusion coefficient,"323.15 K, 12010 kPa",9.02e-09 m2/s
same,binary diffusion coefficient,"323.15 K, 12500 kPa",9.07e-09 m2/s
same,binary diffusion coefficient,"323.15 K, 13020 kPa",8.66e-09 m2/s
same,binary diffusion coefficient,"323.15 K, 13480 kPa",8.28e-09 m2/s
same,binary diffusion coefficient,"323.15 K, 14010 kPa",8.15e-09 m2/s
same,binary diffusion coefficient,"323.15 K, 15990 kPa",7.44e-09 m2/s
same,binary diffusion coefficient,"323.15 K, 18000 kPa",7.03e-09 m2/s
same,binary diffusion coefficient,"323.15 K, 20020 kPa",6.78e-09 m2/s
same,binary diffusion coefficient,"323.15 K, 21990 kPa",6.42e-09 m2/s
same,binary diffusion coefficient,"323.15 K, 24000 kPa",6.21e-09 m2/s
same,binary diffusion coefficient,"323.15 K, 26000 kPa",6.02e-09 m2/s
same,binary diffusion coefficient,"323.15 K, 28020 kPa",5.88e-09 m2/s
same,binary diffusion coefficient,"323.15 K, 30050 kPa",5.64e-09 m2/s
same,binary diffusion coefficient,"323.15 K, 30060 kPa",5.82e-09 m2/s
same,binary diffusion coefficient,"333.15 K, 13890 kPa",1.05e-08 m2/s
same,binary diffusion coefficient,"333.15 K, 15030 kPa",9.16e-09 m2/s
same,binary diffusion coefficient,"333.15 K, 15500 kPa",9.04e-09 m2/s
same,binary diffusion coefficient,"333.15 K, 16980 kPa",8.47e-09 m2/s
same,binary diffusion coefficient,"333.15 K, 17500 kPa",8.32e-09 m2/s
same,binary diffusion coefficient,"333.15 K, 19010 kPa",7.91e-09 m2/s
same,binary diffusion coefficient,"333.15 K, 19990 kPa",7.67e-09 m2/s
same,binary diffusion coefficient,"333.15 K, 22010 kPa",7.26e-09 m2/s
same,binary diffusion coefficient,"333.15 K, 24000 kPa",7.01e-09 m2/s
same,binary diffusion coefficient,"333.15 K, 26010 kPa",6.81e-09 m2/s
same,binary diffusion coefficient,"333.15 K, 26060 kPa",6.78e-09 m2/s
same,binary diffusion coefficient,"333.15 K, 28030 kPa",6.68e-09 m2/s
same,binary diffusion coefficient,"333.15 K, 30160 kPa",6.49e-09 m2/s
same,binary diffusion coefficient,"343.15 K, 16200 kPa",1.01e-08 m2/s
same,binary diffusion coefficient,"343.15 K, 16990 kPa",9.57e-09 m2/s
same,binary diffusion coefficient,"343.15 K, 17490 kPa",9.45e-09 m2/s
same,binary diffusion coefficient,"343.15 K, 18010 kPa",9.14e-09 m2/s
same,binary diffusion coefficient,"343.15 K, 18990 kPa",8.93e-09 m2/s
same,binary diffusion coefficient,"343.15 K, 19990 kPa",8.61e-09 m2/s
same,binary diffusion coefficient,"343.15 K, 21000 kPa",8.46e-09 m2/s
same,binary diffusion coefficient,"343.15 K, 22010 kPa",8.32e-09 m2/s
same,binary diffusion coefficient,"343.15 K, 22980 kPa",7.87e-09 m2/s
same,binary diffusion coefficient,"343.15 K, 23990 kPa",7.79e-09 m2/s
same,binary diffusion coefficient,"343.15 K, 26000 kPa",7.58e-09 m2/s
same,binary diffusion coefficient,"343.15 K, 28000 kPa",7.12e-09 m2/s
same,binary diffusion coefficient,"343.15 K, 28050 kPa",7.3e-09 m2/s
same,binary diffusion coefficient,"343.15 K, 30260 kPa",7.13e-09 m2/s
"CCCCC/C=C\C/C=C\CCCCCCCC(=O)O [(Z,Z)-9,12-octadecadienoic acid] + O=C=O",binary diffusion coefficient,"308.15 K, 8500 kPa",8.7e-09 m2/s
same,binary diffusion coefficient,"308.15 K, 8970 kPa",8.31e-09 m2/s
same,binary diffusion coefficient,"308.15 K, 10000 kPa",7.53e-09 m2/s
same,binary diffusion coefficient,"308.15 K, 11020 kPa",7.33e-09 m2/s
same,binary diffusion coefficient,"308.15 K, 12000 kPa",6.89e-09 m2/s
same,binary diffusion coefficient,"308.15 K, 14000 kPa",6.45e-09 m2/s
same,binary diffusion coefficient,"308.15 K, 16010 kPa",6.13e-09 m2/s
same,binary diffusion coefficient,"308.15 K, 17470 kPa",6.02e-09 m2/s
same,binary diffusion coefficient,"308.15 K, 18020 kPa",5.9e-09 m2/s
same,binary diffusion coefficient,"308.15 K, 20000 kPa",5.85e-09 m2/s
same,binary diffusion coefficient,"308.15 K, 21000 kPa",5.71e-09 m2/s
same,binary diffusion coefficient,"308.15 K, 22030 kPa",5.69e-09 m2/s
same,binary diffusion coefficient,"308.15 K, 25000 kPa",5.26e-09 m2/s
same,binary diffusion coefficient,"308.15 K, 26000 kPa",5.2e-09 m2/s
same,binary diffusion coefficient,"308.15 K, 28050 kPa",5.05e-09 m2/s
same,binary diffusion coefficient,"308.15 K, 30300 kPa",4.96e-09 m2/s
same,binary diffusion coefficient,"313.21 K, 9490 kPa",9.47e-09 m2/s
same,binary diffusion coefficient,"313.21 K, 10040 kPa",8.74e-09 m2/s
same,binary diffusion coefficient,"313.21 K, 10990 kPa",8.03e-09 m2/s
same,binary diffusion coefficient,"313.21 K, 12000 kPa",7.7e-09 m2/s
same,binary diffusion coefficient,"313.21 K, 14020 kPa",7.17e-09 m2/s
same,binary diffusion coefficient,"313.21 K, 15980 kPa",6.75e-09 m2/s
same,binary diffusion coefficient,"313.21 K, 17980 kPa",6.47e-09 m2/s
same,binary diffusion coefficient,"313.21 K, 20000 kPa",6.13e-09 m2/s
same,binary diffusion coefficient,"313.21 K, 21990 kPa",5.97e-09 m2/s
same,binary diffusion coefficient,"313.21 K, 24000 kPa",5.77e-09 m2/s
same,binary diffusion coefficient,"313.21 K, 26010 kPa",5.63e-09 m2/s
same,binary diffusion coefficient,"313.21 K, 27990 kPa",5.46e-09 m2/s
same,binary diffusion coefficient,"313.21 K, 30040 kPa",5.49e-09 m2/s
same,binary diffusion coefficient,"313.21 K, 30110 kPa",5.39e-09 m2/s
same,binary diffusion coefficient,"323.15 K, 12020 kPa",8.9e-09 m2/s
same,binary diffusion coefficient,"323.15 K, 12510 kPa",9.15e-09 m2/s
same,binary diffusion coefficient,"323.15 K, 13000 kPa",8.86e-09 m2/s
same,binary diffusion coefficient,"323.15 K, 14000 kPa",8.58e-09 m2/s
same,binary diffusion coefficient,"323.15 K, 16000 kPa",7.76e-09 m2/s
same,binary diffusion coefficient,"323.15 K, 18000 kPa",7.39e-09 m2/s
same,binary diffusion coefficient,"323.15 K, 20010 kPa",7.06e-09 m2/s
same,binary diffusion coefficient,"323.15 K, 22000 kPa",6.83e-09 m2/s
same,binary diffusion coefficient,"323.15 K, 24000 kPa",6.57e-09 m2/s
same,binary diffusion coefficient,"323.15 K, 26000 kPa",6.37e-09 m2/s
same,binary diffusion coefficient,"323.15 K, 28020 kPa",6.12e-09 m2/s
same,binary diffusion coefficient,"323.15 K, 30290 kPa",5.9e-09 m2/s
same,binary diffusion coefficient,"333.15 K, 13890 kPa",9.59e-09 m2/s
same,binary diffusion coefficient,"333.15 K, 14480 kPa",9.99e-09 m2/s
same,binary diffusion coefficient,"333.15 K, 15000 kPa",9.67e-09 m2/s
same,binary diffusion coefficient,"333.15 K, 15980 kPa",9.33e-09 m2/s
same,binary diffusion coefficient,"333.15 K, 18000 kPa",8.66e-09 m2/s
same,binary diffusion coefficient,"333.15 K, 20000 kPa",8.28e-09 m2/s
same,binary diffusion coefficient,"333.15 K, 20050 kPa",8.17e-09 m2/s
same,binary diffusion coefficient,"333.15 K, 22000 kPa",7.82e-09 m2/s
same,binary diffusion coefficient,"333.15 K, 24020 kPa",7.58e-09 m2/s
same,binary diffusion coefficient,"333.15 K, 26060 kPa",7.21e-09 m2/s
same,binary diffusion coefficient,"333.15 K, 27020 kPa",7.14e-09 m2/s
same,binary diffusion coefficient,"333.15 K, 28020 kPa",7.03e-09 m2/s
same,binary diffusion coefficient,"333.15 K, 29040 kPa",6.99e-09 m2/s
same,binary diffusion coefficient,"333.15 K, 30070 kPa",6.82e-09 m2/s
same,binary diffusion coefficient,"343.15 K, 16200 kPa",1.02e-08 m2/s
same,binary diffusion coefficient,"343.15 K, 16210 kPa",1.04e-08 m2/s
same,binary diffusion coefficient,"343.15 K, 16990 kPa",1.02e-08 m2/s
same,binary diffusion coefficient,"343.15 K, 17990 kPa",9.85e-09 m2/s
same,binary diffusion coefficient,"343.15 K, 18000 kPa",9.84e-09 m2/s
same,binary diffusion coefficient,"343.15 K, 18990 kPa",9.43e-09 m2/s
same,binary diffusion coefficient,"343.15 K, 20000 kPa",9.01e-09 m2/s
same,binary diffusion coefficient,"343.15 K, 20040 kPa",9.18e-09 m2/s
same,binary diffusion coefficient,"343.15 K, 22000 kPa",8.71e-09 m2/s
same,binary diffusion coefficient,"343.15 K, 24000 kPa",8.37e-09 m2/s
same,binary diffusion coefficient,"343.15 K, 26010 kPa",8.11e-09 m2/s
same,binary diffusion coefficient,"343.15 K, 26990 kPa",7.88e-09 m2/s
same,binary diffusion coefficient,"343.15 K, 28010 kPa",7.77e-09 m2/s
same,binary diffusion coefficient,"343.15 K, 29050 kPa",7.81e-09 m2/s
same,binary diffusion coefficient,"343.15 K, 30030 kPa",7.64e-09 m2/s
